Starred links: 1 amine or outer side, 2 acyl side, 3 side chain; linkers in the order of their positions; H or OH if unused. Positions of bridges follow the written chain, without caps; N, C: chain ends. Non-standard residues stand in square brackets, D forms with d. Residues, ends and D or L forms follow the SMILES beside them. Phe(4-COOH) = N[C@@H](Cc1ccc(C(=O)O)cc1)C(=O)O; Trp(5-F) = N[C@@H](Cc1c[nH]c2ccc(F)cc12)C(=O)O; dTrp(5-F) = N[C@H](Cc1c[nH]c2ccc(F)cc12)C(=O)O; Trp(7-aza) = N[C@@H](Cc1c[nH]c2ncccc12)C(=O)O; Phe(4-CH2NH2) = NCc1ccc(C[C@H](N)C(=O)O)cc1; Asp(3,3-Me2) = CC(C)(C(=O)O)[C@H](N)C(=O)O; X9 = CS[C@H]1C[C@@H](C(=O)[*:2])N([*:1])C1; X17 = O=C(CCSCc1ccc(CSCCN[*:1])cc1)[*:2]; Pro(4S-NH2) = N[C@@H]1CN[C@H](C(=O)O)C1; X4 = O=C(CCSCc1cccc(CSCCN[*:1])c1)[*:2]; X27 = O=C([C@@H](N[*:1])C1(O)CC1)[*:2]; TBMB = c1c(C[*:1])cc(C[*:3])cc1C[*:2]; X23 = CC[C@@]1(C(=O)[*:2])CCCN1[*:1]; mXylylene = c1cc(C[*:1])cc(C[*:2])c1; NMeY = CN[C@@H](Cc1ccc(O)cc1)C(=O)O; Adipoyl = O=C(CCCCC(=O)[*:2])[*:1]; Val(3-OH) = CC(C)(O)[C@H](N)C(=O)O; X22 = Oc1cc(C[*:1])cc(C[*:2])c1; d(αMeP) = C[C@]1(C(=O)O)CCCN1; Tle = CC(C)(C)[C@H](N)C(=O)O; αMeP = C[C@@]1(C(=O)O)CCCN1; dDab = NCC[C@@H](N)C(=O)O; Orn = NCCC[C@H](N)C(=O)O; X2 = O=C(C[*:2])[*:1]; Ava = NCCCCC(=O)O; Mpa = O=C(O)CCS
Legend:
PCSK9 = PCSK9 (Homo sapiens (Human), UniProt Q8NBP7); assay: PCSK9 Alexa FRET Standard assay (displacement of AlexaFluor647 tagged cyclic peptide Reagent A); format: binding; settings: PCSK9 Alexa FRET Standard assay, 0.5 nM PCSK9, 20 nM AF cyclic peptide Reagent A; read-out: IC50
Sequence of PCSK9 (Q8NBP7 153-692): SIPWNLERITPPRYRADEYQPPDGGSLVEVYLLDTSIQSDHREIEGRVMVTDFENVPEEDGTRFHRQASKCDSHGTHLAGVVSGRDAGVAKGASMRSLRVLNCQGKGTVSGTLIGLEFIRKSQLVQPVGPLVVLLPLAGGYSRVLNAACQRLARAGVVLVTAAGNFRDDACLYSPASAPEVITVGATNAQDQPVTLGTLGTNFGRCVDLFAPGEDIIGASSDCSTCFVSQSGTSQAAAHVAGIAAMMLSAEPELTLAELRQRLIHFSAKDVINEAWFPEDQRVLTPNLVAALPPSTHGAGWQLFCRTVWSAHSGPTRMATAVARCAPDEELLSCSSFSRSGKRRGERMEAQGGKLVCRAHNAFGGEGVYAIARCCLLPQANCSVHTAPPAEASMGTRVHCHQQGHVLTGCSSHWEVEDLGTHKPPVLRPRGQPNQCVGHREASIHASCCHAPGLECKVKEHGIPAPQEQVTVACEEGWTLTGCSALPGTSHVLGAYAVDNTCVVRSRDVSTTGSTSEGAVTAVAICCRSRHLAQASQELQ
How it was run: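 TR-FRET displacement: 0.5 nM biotinylated PCSK9 with 1.25 nM Strep-Eu and 20 nM AlexaFluor-tagged cyclic peptide (final) in 50 mM HEPES pH 7.4, 0.15 M NaCl, 5 mM CaCl2, 0.01% BSA, 0.01% P20, ≥2 h at room temperature. IC50 from sigmoidal fit, converted to Ki via peptide KD; falling Eu counts flagged false positives.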

[1] = target: human PCSK9 / human LDLR EGFa domain interaction (Homo sapiens (Human), UniProt Q8NBP7); assay: TR-FRET assay of inhibition of the PCSK9-LDLR protein-protein interaction; format: binding; settings: TR-FRET, 20 nM human PCSK9, 20 nM human LDLR EGFa domain, 2 hours room temperature; read-out: IC50
Sequence of human PCSK9 / human LDLR EGFa domain interaction (Q8NBP7 153-692): as above
Sequence of human PCSK9 / human LDLR EGFa domain interaction (Q8NBP7 31-152 partner): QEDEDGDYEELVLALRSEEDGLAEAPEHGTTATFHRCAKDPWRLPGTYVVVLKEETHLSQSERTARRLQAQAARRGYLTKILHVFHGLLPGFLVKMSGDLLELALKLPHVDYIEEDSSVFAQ
How it was run: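 Readout is the TR-FRET signal between europium anti-6×His on his-tagged LDLR EGFa domain and Ulight streptavidin on biotinylated PCSK9, both proteins at 20 nM and both detection reagents at 5 nM. Incubation lasted 2 hours at room temperature; compounds were run in dose-response with a 4-parameter fit.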

SMILES | IC50 (PCSK9) [nM] | IC50 [1] [nM]
Cc1cc2cc(c1)CSC[C@@H](C(N)=O)NC(=O)[C@]1(C)CCCN1C(=O)[C@H](Cc1ccc(O)cc1)NC(=O)[C@H](Cc1c[nH]cn1)NC(=O)[C@H](CC(=O)O)NC(=O)[C@H](Cc1c[nH]c3ccc(F)cc13)NC(=O)[C@H](Cc1c[nH]c3ccc(F)cc13)NC(=O)CNC(=O)[C@H](CCCCN)NC(=O)CCSC2 [Compound 357] ([Mpa]KG[Trp(5-F)][Trp(5-F)]DHY[αMeP]C-NH2; linker 1-10 via TBMB) | 1000 to 12100 | 1000 to 12100
COc1ccc(C[C@H]2NC(=O)[C@@H](Cc3c[nH]cn3)NC(=O)[C@@H](CC(=O)O)NC(=O)[C@@H](Cc3c[nH]c4ccc(F)cc34)NC(=O)[C@@H](Cc3c[nH]c4ccc(F)cc34)NC(=O)[C@H](C(C)(C)C)NC(=O)[C@@H](CCCCN)NC(=O)CCSCc3cccc(c3)CSCCNC(=O)[C@@]3(C)CCCN3C2=O)cc1 [Compound 362] (cyclo([Tle][dTrp(5-F)][dTrp(5-F)][dD][dH][dY](Me)[d(αMeP)][X4][dK])) | 0.11 to 100 | 0.1 to 100
CS[C@H]1C[C@H]2C(=O)N[C@H](C(N)=O)CSCc3cccc(c3)CSCCC(=O)N[C@@H](CCCCN)C(=O)NCC(=O)N[C@@H](Cc3c[nH]c4ccc(F)cc34)C(=O)N[C@@H](Cc3c[nH]c4ccc(F)cc34)C(=O)N[C@@H](CC(=O)O)C(=O)N[C@@H](Cc3cnc[nH]3)C(=O)N[C@@H](Cc3ccc(O)cc3)C(=O)N2C1 [Compound 363] ([Mpa]KG[Trp(5-F)][Trp(5-F)]DHY[X9]C-NH2; linker 1-10 via mXylylene) | 100 to 1000 | 0.1 to 100
CC(=O)N[C@H]1CCCNC(=O)COc2ccc(cc2)C[C@@H](C(N)=O)NC(=O)[C@]2(C)CCCN2C(=O)[C@H](Cc2ccc(O)cc2)NC(=O)[C@H](Cc2cnc[nH]2)NC(=O)[C@H](CC(=O)O)NC(=O)[C@H](Cc2c[nH]c3ccc(F)cc23)NC(=O)[C@H](Cc2c[nH]c3ccc(F)cc23)NC(=O)CNC(=O)[C@H](C)NC1=O [Compound 364] (Ac-[Orn]AG[Trp(5-F)][Trp(5-F)]DHY[αMeP]Y-NH2; linker 1-10 via X2) | 100 to 1000 | 100 to 1000
COc1ccc(C[C@@H]2NC(=O)[C@H](Cc3cnc[nH]3)NC(=O)[C@H](CC(=O)O)NC(=O)[C@H](Cc3c[nH]c4cc(F)ccc34)NC(=O)[C@H](Cc3c[nH]c4ccc(F)cc34)NC(=O)[C@@H](C)NC(=O)[C@H](CCCCN)NC(=O)CCCc3cn(nn3)-c3ccc(cc3)C[C@@H](C(N)=O)NC(=O)[C@]3(C)CCCN3C2=O)cc1 [Compound 369] | 100 to 1000 | 0.1 to 100
C[C@@H]1NC(=O)CCCCC(=O)NCc2ccc(cc2)C[C@@H](C(N)=O)NC(=O)[C@]2(C)CCCN2C(=O)[C@H](Cc2ccc(O)cc2)NC(=O)[C@H](Cc2cnc[nH]2)NC(=O)[C@H](CC(=O)O)NC(=O)[C@H](Cc2c[nH]c3ccc(F)cc23)NC(=O)[C@H](Cc2c[nH]c3ccc(F)cc23)NC(=O)CNC1=O [Compound 370] (AG[Trp(5-F)][Trp(5-F)]DHY[αMeP][Phe(4-CH2NH2)]-NH2; linker N-9 via Adipoyl) | 100 to 1000 | 0.1 to 100
C[C@@]12CCCN1C(=O)[C@H](Cc1ccc(O)cc1)NC(=O)[C@H](Cc1cnc[nH]1)NC(=O)[C@H](CC(=O)O)NC(=O)[C@H](Cc1c[nH]c3ccc(F)cc13)NC(=O)[C@H](Cc1c[nH]c3ccc(F)cc13)NC(=O)CNC(=O)[C@H](C1(O)CC1)NC(=O)CCSCc1cccc(c1)CSC[C@@H](C(N)=O)NC2=O [Compound 372] ([Mpa][X27]G[Trp(5-F)][Trp(5-F)]DHY[αMeP]C-NH2; linker 1-10 via mXylylene) | 100 to 1000 | 100 to 1000
CC(C)C[C@H]1NC(=O)[C@H](CCCCN)NC(=O)CCSCc2cccc(c2)CSC[C@@H](C(N)=O)NC(=O)[C@]2(C)CCCN2C(=O)[C@H](Cc2ccc(O)cc2)NC(=O)[C@H](Cc2cnc[nH]2)NC(=O)[C@H](CC(=O)O)NC(=O)[C@H](Cc2c[nH]c3ccc(F)cc23)NC(=O)[C@H](Cc2c[nH]c3ccc(F)cc23)NC1=O [Compound 373] ([Mpa]K[dL][Trp(5-F)][Trp(5-F)]DHY[αMeP]C-NH2; linker 1-10 via mXylylene) | 100 to 1000 | 0.1 to 100
CC(C)(O)[C@@H]1NC(=O)CCSCc2cccc(c2)CSC[C@@H](C(N)=O)NC(=O)[C@]2(C)CCCN2C(=O)[C@H](Cc2ccc(O)cc2)NC(=O)[C@H](Cc2cnc[nH]2)NC(=O)[C@H](CC(=O)O)NC(=O)[C@H](Cc2c[nH]c3ccc(F)cc23)NC(=O)[C@H](Cc2c[nH]c3ccc(F)cc23)NC(=O)CNC1=O [Compound 374] ([Mpa][Val(3-OH)]G[Trp(5-F)][Trp(5-F)]DHY[αMeP]C-NH2; linker 1-10 via mXylylene) | 100 to 1000 | 0.1 to 100
COc1ccc(C[C@@H]2NC(=O)[C@H](Cc3cnc[nH]3)NC(=O)[C@H](CC(=O)O)NC(=O)[C@H](Cc3c[nH]c4ccc(F)cc34)NC(=O)[C@H](Cc3c[nH]c4ccc(F)cc34)NC(=O)[C@@H](C)NC(=O)CCCCNC(=O)c3ccc(cc3)C[C@@H](C(N)=O)NC(=O)[C@]3(C)CCCN3C2=O)cc1 [Compound 380] ([Ava][dA][Trp(5-F)][Trp(5-F)]DHY(Me)[αMeP][Phe(4-COOH)]-NH2; lactam N-9) | 21000 to 50000 | 21000 to 50000
COc1ccc(C[C@@H]2NC(=O)[C@H](Cc3cnc[nH]3)NC(=O)[C@H](CC(=O)O)NC(=O)[C@H](Cc3c[nH]c4ccc(F)cc34)NC(=O)[C@H](Cc3c[nH]c4ccc(F)cc34)NC(=O)[C@@H](C)NC(=O)[C@H](NC(C)=O)Cc3cn(nn3)-c3ccc(cc3)C[C@@H](C(N)=O)NC(=O)[C@]3(C)CCCN3C2=O)cc1 [Compound 381] | 1000 to 12100 | 100 to 1000
COc1ccc(C[C@@H]2NC(=O)[C@H](CCC(=O)O)NC(=O)[C@@H]3C[C@H](N)CN3C(=O)[C@H](Cc3c[nH]c4ccc(F)cc34)NC(=O)[C@H](Cc3c[nH]c4ccc(F)cc34)NC(=O)[C@@H](C)NC(=O)[C@H](C)NC(=O)CCSCc3ccc(cc3)CSCCNC(=O)[C@]3(C)CCCN3C2=O)cc1 [Compound 382] (cyclo(A[dA][Trp(5-F)][Trp(5-F)][Pro(4S-NH2)]EY(Me)[αMeP][X17])) | 0.11 to 100 | 0.1 to 100
C[C@H]1NC(=O)[C@H](CCCCN)NC(=O)CCSCc2cccc(c2)CSCCNC(=O)[C@]2(C)CCCN2C(=O)[C@H](Cc2ccc(O)cc2)N(C)C(=O)[C@H](Cc2c[nH]cn2)NC(=O)[C@H](C(C)(C)C(=O)O)NC(=O)[C@H](Cc2c[nH]c3ccc(F)cc23)NC(=O)[C@H](Cc2c[nH]c3ccc(F)cc23)NC1=O [Compound 383] (cyclo(H[NMeY][αMeP][X4]K[dA][Trp(5-F)][Trp(5-F)][Asp(3,3-Me2)])) | 100 to 1000 | 0.1 to 100

Continued, values first:

IC50 (PCSK9) [nM] | IC50 [1] [nM] | SMILES
100 to 1000 | 100 to 1000 | C[C@@]12CCCN1C(=O)[C@H](Cc1ccc(O)cc1)NC(=O)[C@H](Cc1cnc[nH]1)NC(=O)[C@H](CC(=O)O)NC(=O)[C@H](Cc1c[nH]c3ccc(F)cc13)NC(=O)[C@H](Cc1c[nH]c3ccc(F)cc13)NC(=O)CNC(=O)[C@@H](CCN)NC(=O)CCSCc1cccc(c1)CSC[C@@H](C(N)=O)NC2=O [Compound 355] ([Mpa][dDab]G[Trp(5-F)][Trp(5-F)]DHY[αMeP]C-NH2; linker 1-10 via mXylylene)
100 to 1000 | 0.1 to 100 | C[C@@]12CCCN1C(=O)[C@H](Cc1ccc(O)cc1)NC(=O)[C@H](Cc1c[nH]cn1)NC(=O)[C@H](CC(=O)O)NC(=O)[C@H](Cc1c[nH]c3ccc(F)cc13)NC(=O)[C@H](Cc1c[nH]c3ccc(F)cc13)NC(=O)CNC(=O)[C@H](CCCCN)NC(=O)CCSCc1cc(O)cc(c1)CSC[C@@H](C(N)=O)NC2=O [Compound 359] ([Mpa]KG[Trp(5-F)][Trp(5-F)]DHY[αMeP]C-NH2; linker 1-10 via X22)
100 to 1000 | 0.1 to 100 | C[C@@]12CCCN1C(=O)[C@H](Cc1c[nH]c3ncccc13)NC(=O)[C@H](Cc1cnc[nH]1)NC(=O)[C@H](CC(=O)O)NC(=O)[C@H](Cc1c[nH]c3ccc(F)cc13)NC(=O)[C@H](Cc1c[nH]c3ccc(F)cc13)NC(=O)CNC(=O)[C@H](CCCCN)NC(=O)CCSCc1cccc(c1)CSC[C@@H](C(N)=O)NC2=O [Compound 360] ([Mpa]KG[Trp(5-F)][Trp(5-F)]DH[Trp(7-aza)][αMeP]C-NH2; linker 1-10 via mXylylene)
100 to 1000 | 0.1 to 100 | C[C@H]1NC(=O)[C@H](CCCCN)NC(=O)CCSCc2cccc(c2)CSC[C@@H](C(N)=O)NC(=O)[C@]2(C)CCCN2C(=O)[C@H](Cc2ccc(O)cc2)NC(=O)[C@H](Cc2cnc[nH]2)NC(=O)[C@H](C(C)(C)C(=O)O)NC(=O)[C@H](Cc2c[nH]c3ccc(F)cc23)NC(=O)[C@H](Cc2c[nH]c3ccc(F)cc23)NC1=O [Compound 361] ([Mpa]K[dA][Trp(5-F)][Trp(5-F)][Asp(3,3-Me2)]HY[αMeP]C-NH2; linker 1-10 via mXylylene)
0.11 to 100 | 0.1 to 100 | COc1ccc(C[C@@H]2NC(=O)[C@H](Cc3cnc[nH]3)NC(=O)[C@H](CC(=O)O)NC(=O)[C@H](Cc3c[nH]c4ccc(F)cc34)NC(=O)[C@H](Cc3c[nH]c4ccc(F)cc34)NC(=O)[C@@H](C)NC(=O)[C@H](CCCCN)NC(=O)[C@@H](NC(C)=O)CCc3cn(nn3)-c3ccc(cc3)C[C@@H](C(N)=O)NC(=O)[C@]3(C)CCCN3C2=O)cc1 [Compound 371]
0.11 to 100 | 0.1 to 100 | CC[C@@]12CCCN1C(=O)[C@H](Cc1ccc(O)cc1)NC(=O)[C@H](Cc1cnc[nH]1)NC(=O)[C@H](CC(=O)O)NC(=O)[C@H](Cc1c[nH]c3ccc(F)cc13)NC(=O)[C@H](Cc1c[nH]c3ccc(F)cc13)NC(=O)CNC(=O)[C@H](CCCCN)NC(=O)CCSCc1cccc(c1)CSC[C@@H](C(N)=O)NC2=O [Compound 378] ([Mpa]KG[Trp(5-F)][Trp(5-F)]DHY[X23]C-NH2; linker 1-10 via mXylylene)
